Assay results published in PubChem BioAssay AID1963982 (Molecular Pharmacology Branch, DTP, NCI, 2024).

System: 313798-341-R-J2-PDC spheroids, viability
Experiment: Anticancer human tumor 313798-341-R-J2-PDC patient-derived cervical squamous cell carcinoma cell line growth inhibition [PI3K]
Details: spheroids with HUVEC and MSC; for IC50: curve of first compound; for viability, T/C: stronger effect = lower value
Procedure, shortened: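 Targeted small molecules plus PI3K inhibitors, half-log dose series from Cmax (default top 10 microM), were applied to heterotypic spheroids of cancer cells with HUVEC and MSCs. Viability indicated growth inhibition.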

[1] = second compound 0.0316 µM, first compound 0.0316 µM
[2] = second compound 0.0316 µM, first compound 0.1 µM
[3] = second compound 0.0316 µM, first compound 0.316 µM
[4] = second compound 0.0316 µM, first compound 1 µM
[5] = second compound 0.0316 µM, first compound 3.16 µM
[6] = second compound 0.0316 µM, first compound 10 µM
[7] = second compound 0.1 µM, first compound 0.0316 µM
[8] = second compound 0.1 µM, first compound 0.1 µM
[9] = second compound 0.1 µM, first compound 0.316 µM
[10] = second compound 0.1 µM, first compound 1 µM
[11] = second compound 0.1 µM, first compound 3.16 µM
[12] = second compound 0.1 µM, first compound 10 µM
[13] = second compound 0.316 µM, first compound 0.0316 µM
[14] = second compound 0.316 µM, first compound 0.1 µM
[15] = second compound 0.316 µM, first compound 0.316 µM
[16] = second compound 0.316 µM, first compound 1 µM
[17] = second compound 0.316 µM, first compound 3.16 µM
[18] = second compound 0.316 µM, first compound 10 µM
[19] = second compound 1 µM, first compound 0.0316 µM
[20] = second compound 1 µM, first compound 0.1 µM
[21] = second compound 1 µM, first compound 0.316 µM
[22] = second compound 1 µM, first compound 1 µM
[23] = second compound 1 µM, first compound 3.16 µM
[24] = second compound 1 µM, first compound 10 µM
[25] = second compound 3.16 µM, first compound 0.0316 µM
[26] = second compound 3.16 µM, first compound 0.1 µM
[27] = second compound 3.16 µM, first compound 0.316 µM
[28] = second compound 3.16 µM, first compound 1 µM
[29] = second compound 3.16 µM, first compound 3.16 µM
[30] = second compound 3.16 µM, first compound 10 µM
[31] = second compound 10 µM, first compound 0.0316 µM
[32] = second compound 10 µM, first compound 0.1 µM
[33] = second compound 10 µM, first compound 0.316 µM
[34] = second compound 10 µM, first compound 1 µM
[35] = second compound 10 µM, first compound 3.16 µM
[36] = second compound 10 µM, first compound 10 µM
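Further: spheroids exposed to compounds for seven days.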
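Wherever viability, T/C is given: 100% = DMSO vehicle control viability.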

CCCS(=O)(=O)Nc1ccc(F)c(C(=O)c2c[nH]c3ncc(-c4ccc(Cl)cc4)cc23)c1F + Cc1nc(NC(=O)N2CCCC2C(N)=O)sc1-c1ccnc(C(C)(C)C(F)(F)F)c1
IC50 (second compound 0.0316 µM): 5.85 µM | IC50 (second compound 0.1 µM): 5.6 µM | IC50 (second compound 0.316 µM): 5.65 µM | IC50 (second compound 1 µM): 4.52 µM | IC50 (second compound 3.16 µM): 3.14 µM | IC50 (second compound 10 µM): < 0.0316 µM | viability, T/C [1]: 110% | viability, T/C [2]: 92% | viability, T/C [3]: 93.7% | viability, T/C [4]: 103% | viability, T/C [5]: 98% | viability, T/C [6]: 8.19% | viability, T/C [7]: 100% | viability, T/C [8]: 105% | viability, T/C [9]: 98.7% | viability, T/C [10]: 106% | viability, T/C [11]: 90.7% | viability, T/C [12]: 8.86% | viability, T/C [13]: 99.6% | viability, T/C [14]: 111% | viability, T/C [15]: 90.8% | viability, T/C [16]: 105% | viability, T/C [17]: 89.6% | viability, T/C [18]: 10.9% | viability, T/C [19]: 93.2% | viability, T/C [20]: 90.1% | viability, T/C [21]: 88.7% | viability, T/C [22]: 83.9% | viability, T/C [23]: 70.7% | viability, T/C [24]: 6.27% | viability, T/C [25]: 62% | viability, T/C [26]: 56.8% | viability, T/C [27]: 56.5% | viability, T/C [28]: 58.7% | viability, T/C [29]: 49.8% | viability, T/C [30]: 6.48% | viability, T/C [31]: 33.5% | viability, T/C [32]: 32.5% | viability, T/C [33]: 38.7% | viability, T/C [34]: 36.4% | viability, T/C [35]: 31.2% | viability, T/C [36]: 5.01%

CC1(C)CCC(Nc2ncc(C(F)(F)F)c(-c3c[nH]c4c(P(C)(C)=O)c(C#N)ccc34)n2)CN1 (centres undefined) + Cc1nc(NC(=O)N2CCCC2C(N)=O)sc1-c1ccnc(C(C)(C)C(F)(F)F)c1
IC50 (second compound 0.0316 µM): > 10 µM | IC50 (second compound 0.1 µM): > 10 µM | IC50 (second compound 0.316 µM): < 0.0316 µM | IC50 (second compound 1 µM): < 0.0316 µM | IC50 (second compound 3.16 µM): < 0.0316 µM | IC50 (second compound 10 µM): < 0.0316 µM | viability, T/C [1]: 64.5% | viability, T/C [2]: 49.2% | viability, T/C [3]: 52.4% | viability, T/C [4]: 54.4% | viability, T/C [5]: 58.8% | viability, T/C [6]: 71.9% | viability, T/C [7]: 54.9% | viability, T/C [8]: 50.8% | viability, T/C [9]: 50.3% | viability, T/C [10]: 53.1% | viability, T/C [11]: 54.1% | viability, T/C [12]: 66.6% | viability, T/C [13]: 45.7% | viability, T/C [14]: 39.6% | viability, T/C [15]: 35.5% | viability, T/C [16]: 38.7% | viability, T/C [17]: 43.8% | viability, T/C [18]: 52.3% | viability, T/C [19]: 34.7% | viability, T/C [20]: 32.2% | viability, T/C [21]: 35.5% | viability, T/C [22]: 34.2% | viability, T/C [23]: 36% | viability, T/C [24]: 33.7% | viability, T/C [25]: 27.9% | viability, T/C [26]: 25% | viability, T/C [27]: 23.7% | viability, T/C [28]: 23.3% | viability, T/C [29]: 26.2% | viability, T/C [30]: 10.8% | viability, T/C [31]: 16.9% | viability, T/C [32]: 18.7% | viability, T/C [33]: 16.6% | viability, T/C [34]: 17.8% | viability, T/C [35]: 17.2% | viability, T/C [36]: 1.7%
